This note sets out measurements from patent US20220089578A1, “COMPOUNDS AS GLP-1R AGONISTS” (Terns Pharmaceuticals, Inc., priority 2020, published 2022).

A word on the EC50: it is the concentration giving half of the maximal effect. A lower EC50 goes with a more potent agent.

Molecules are shown by their SMILES. Some results are limits rather than exact numbers.

The target in one experiment is human GLP-1R (Homo sapiens, UniProt P43220). Put plainly: GLP-1R Cell Assay 1: cAMP Hunter CHO-K1 GLP1R Gs cell line, HitHunter cAMP assay. The format is cell-based. The settings on record: Table 2; cAMP Hunter CHO-K1 GLP1R Gs cells; percent activity normalized to Exendin-4. The gist of the method: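 CHO-K1 cells overexpressing wild-type human GLP-1R treated with 3-fold serially diluted compounds for 30-60 min at 37 °C. cAMP measured by EFC competitive luminescent immunoassay; activity normalised to Exendin-4, duplicate runs, EC50 by nonlinear regression.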
human GLP-1R, sequence (P43220 24-463): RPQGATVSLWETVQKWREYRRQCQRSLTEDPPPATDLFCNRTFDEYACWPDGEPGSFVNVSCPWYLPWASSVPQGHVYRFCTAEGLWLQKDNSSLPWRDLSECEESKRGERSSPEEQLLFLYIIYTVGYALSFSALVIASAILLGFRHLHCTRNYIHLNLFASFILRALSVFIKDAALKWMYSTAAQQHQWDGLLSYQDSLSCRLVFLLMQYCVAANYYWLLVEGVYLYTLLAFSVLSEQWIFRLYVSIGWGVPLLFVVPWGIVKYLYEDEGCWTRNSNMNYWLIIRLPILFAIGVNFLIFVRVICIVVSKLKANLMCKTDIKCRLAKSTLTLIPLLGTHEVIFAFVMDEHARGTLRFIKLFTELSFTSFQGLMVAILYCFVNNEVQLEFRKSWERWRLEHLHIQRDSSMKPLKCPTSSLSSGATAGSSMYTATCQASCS
(In general: Cyclic AMP is a second messenger, typically raised through Gs and lowered through Gi signalling.)
Regarding `N#Cc1ccc(COc2cccc(C3CCN([C@@H]4CCn5c4nc4ccc(C(=O)O)cc45)CC3)n2)c(F)c1` (single isomer, unassigned) [Compound 6-P1], it took 248 nM to reach a half-maximal effect (EC50).

`N#Cc1ccc(COc2cccc([C@@]34CCN(Cc5nc6ccc(C(=O)O)cc6n5C[C@@H]5CCO5)C[C@@H]3C4)n2)c(F)c1` (single isomer, unassigned) [Compound 9-P1] had an EC50 of 0.171 nM.

`CC(C)c1cn(C2CCN(Cc3nc4ccc(C(=O)O)cc4n3C[C@@H]3CCO3)CC2)nc1OCc1ccc(C#N)cc1F` [Compound 118, (S)-2-((4-(3-((4-cyano-2-fluorobenzyl)oxy)-4-isopropyl-1H-pyrazol-1-yl)piperidin-1-yl)methyl)-1-(oxetan-2-ylmethyl)-1H-benzo[d]imidazole-6-carboxylic acid] yielded an EC50 of 185 nM.

In the case of `CC1Cc2cc(C#N)cc(F)c2CN1c1cccc(N2CCN(Cc3nc4ccc(C(=O)O)cc4n3C[C@@H]3CCO3)CC2)n1` (stereo partly drawn) [Compound 133, 2-((4-(6-(6-cyano-8-fluoro-3-methyl-3,4-dihydroisoquinolin-2(1H)-yl)pyridin-2-yl)piperazin-1-yl)methyl)-1-(((S)-oxetan-2-yl)methyl)-1H-benzo[d]imidazole-6-carboxylic acid], a half-maximal response (EC50) required 10.6 nM.

On to `O=C(O)c1ccc2nc(CN3CCC(n4ccc(OCCc5ccccc5)n4)CC3)n(C[C@@H]3CCO3)c2c1` [Compound 99], for which the EC50 was 2070 nM.

In turn, `N#Cc1ccc(COc2nn(C3CCN(Cc4nc5ccc(C(=O)O)cc5n4C[C@@H]4CCO4)CC3)cc2C(F)(F)F)c(F)c1` [Compound 117, (S)-2-((4-(3-((4-cyano-2-fluorobenzyl)oxy)-4-(trifluoromethyl)-1H-pyrazol-1-yl)piperidin-1-yl)methyl)-1-(oxetan-2-ylmethyl)-1H-benzo[d]imidazole-6-carboxylic acid] had an EC50 of 5.93 nM.

The compound `N#Cc1cccc2c1CCCN2c1cccc(N2CCN(Cc3nc4ccc(C(=O)O)cc4n3C[C@@H]3CCO3)CC2)n1` [Compound 5, (S)-2-((4-(6-(5-cyano-3,4-dihydroquinolin-1(2H)-yl)pyridin-2-yl)piperazin-1-yl)methyl)-1-(oxetan-2-ylmethyl)-1H-benzo[d]imidazole-6-carboxylic acid] showed an EC50 of 315 nM.

As to `O=C(O)c1ccc2nc(CN3CCN(c4cccc(OCc5nc6cc(F)ccc6s5)n4)CC3)n(C[C@@H]3CCO3)c2c1` [Compound 119, (S)-2-((4-(6-((5-fluorobenzo[d]thiazol-2-yl)methoxy)pyridin-2-yl)piperazin-1-yl)methyl)-1-(oxetan-2-ylmethyl)-1H-benzo[d]imidazole-6-carboxylic acid], the EC50 was 0.552 nM.

`CC(=O)N1CCC(COc2cccc(N3CCN(Cc4nc5ccc(C(=O)O)cc5n4C[C@@H]4CCO4)CC3)n2)CC1` [Compound 38, (S)-2-((4-(6-((1-acetylpiperidin-4-yl)methoxy)pyridin-2-yl)piperazin-1-yl)methyl)-1-(oxetan-2-ylmethyl)-1H-benzo[d]imidazole-6-carboxylic acid] yielded a half-maximal effective concentration (EC50) of over 500 nM.

Regarding `N#Cc1ccc(COc2cccc([C@]34CCN(Cc5nc6ccc(C(=O)O)cc6n5C[C@@H]5CCO5)C[C@H]3C4)n2)c(F)c1` [Compound 9-P2, 2-(((1S,6R)-6-(6-((4-cyano-2-fluorobenzyl)oxy)pyridin-2-yl)-3-azabicyclo[4.1.0]heptan-3-yl)methyl)-1-((S)-oxetan-2-ylmethyl)-1H-benzo[d]imidazole-6-carboxylic acid], the EC50 worked out at 0.494 nM.

The compound `CCn1cncc1Cn1c(CN2CCC3(c4cccc5c4OC(C)(c4ccc(Cl)cc4F)O5)CC3C2)nc2ccc(C(=O)O)cc21` (centres unmarked) [Compound 138, 2-((6-(2-(4-chloro-2-fluorophenyl)-2-methylbenzo[d][1,3]dioxol-4-yl)-3-azabicyclo[4.1.0]heptan-3-yl)methyl)-1-((1-ethyl-1H-imidazol-5-yl)methyl)-1H-benzo[d]imidazole-6-carboxylic acid] had an EC50 of 0.108 nM.

As to `N#Cc1ccc(COc2nn(C3CCN(Cc4nc5ccc(C(=O)O)cc5n4C[C@@H]4CCO4)CC3)cc2C2CC2)c(F)c1` [Compound 132, (S)-2-((4-(3-((4-cyano-2-fluorobenzyl)oxy)-4-cyclopropyl-1H-pyrazol-1-yl)piperidin-1-yl)methyl)-1-(oxetan-2-ylmethyl)-1H-benzo[d]imidazole-6-carboxylic acid], the EC50 is 34 nM.

`N#Cc1ccc2c(c1)CCN(c1ccn(C3CCN(Cc4nc5ccc(C(=O)O)cc5n4C[C@@H]4CCO4)CC3)n1)C2` [Compound 105, (S)-2-((4-(3-(6-cyano-3,4-dihydroisoquinolin-2(1H)-yl)-1H-pyrazol-1-yl)piperidin-1-yl)methyl)-1-(oxetan-2-ylmethyl)-1H-benzo[d]imidazole-6-carboxylic acid] showed a half-maximal effective concentration (EC50) of over 500 nM.

`Cn1c(COc2cccc(N3CCN(Cc4nc5ccc(C(=O)O)cc5n4C[C@@H]4CCO4)CC3)n2)nc2ccccc21` [Compound 71, (S)-2-((4-(6-((1-methyl-1H-benzo[d]imidazol-2-yl)methoxy)pyridin-2-yl)piperazin-1-yl)methyl)-1-(oxetan-2-ylmethyl)-1H-benzo[d]imidazole-6-carboxylic acid] returned an EC50 of 15.7 nM.

In the case of `O=C(O)c1ccc2nc(CN3CCN(c4cccc(OCc5ccc6ocnc6c5)n4)CC3)n(C[C@@H]3CCO3)c2c1` [Compound 103, (S)-2-((4-(6-(benzo[d]oxazol-5-ylmethoxy)pyridin-2-yl)piperazin-1-yl)methyl)-1-(oxetan-2-ylmethyl)-1H-benzo[d]imidazole-6-carboxylic acid], the EC50 came to 5.54 nM.

For `C[C@@H](Oc1cccc(N2CCN(Cc3nc4ccc(C(=O)O)cc4n3C[C@@H]3CCO3)CC2)n1)c1nc2ccccc2s1` [Compound 116, 2-((4-(6-((R)-1-(benzo[d]thiazol-2-yl)ethoxy)pyridin-2-yl)piperazin-1-yl)methyl)-1-(((S)-oxetan-2-yl)methyl)-1H-benzo[d]imidazole-6-carboxylic acid], the EC50 came to 4.27 nM.

Compound `O=C(O)c1ccc2nc(CN3CCN(c4ccc5cn(Cc6ccccc6)nc5n4)CC3)n(C[C@@H]3CCO3)c2c1` [Compound 31, (S)-2-((4-(2-benzyl-2H-pyrazolo[3,4-b]pyridin-6-yl)piperazin-1-yl)methyl)-1-(oxetan-2-ylmethyl)-1H-benzo[d]imidazole-6-carboxylic acid] registered an EC50 of over 500 nM.

With `CCn1cncc1Cn1c(CN2CCC(c3cccc(N4CCc5cc(C#N)cc(F)c5C4)n3)CC2)nc2ccc(C(=O)O)cc21` [Compound 137, 2-((4-(6-(6-cyano-8-fluoro-3,4-dihydroisoquinolin-2(1H)-yl)pyridin-2-yl)piperidin-1-yl)methyl)-1-((1-ethyl-1H-imidazol-5-yl)methyl)-1H-benzo[d]imidazole-6-carboxylic acid], the EC50 amounted to 0.0514 nM.

`O=C(O)c1ccc2nc(CN3CCC(c4cccc(C5CCc6ccccc6C5)n4)CC3)n(C[C@@H]3CCO3)c2c1` (stereo partly drawn) [Compound 12, 1-((S)-oxetan-2-ylmethyl)-2-((4-(6-(1,2,3,4-tetrahydronaphthalen-2-yl)pyridin-2-yl)piperidin-1-yl)methyl)-1H-benzo[d]imidazole-6-carboxylic acid] displayed an EC50 of 124 nM.

Compound `O=C(O)c1ccc2nc(CN3CCN(c4cccc(OCc5nc6ccc(Cl)cc6s5)n4)CC3)n(C[C@@H]3CCO3)c2c1` [Compound 113, (S)-2-((4-(6-((6-chlorobenzo[d]thiazol-2-yl)methoxy)pyridin-2-yl)piperazin-1-yl)methyl)-1-(oxetan-2-ylmethyl)-1H-benzo[d]imidazole-6-carboxylic acid] displayed an EC50 of 0.176 nM.

`N#Cc1ccc(COc2nn(C3CCN(Cc4nc5ccc(C(=O)O)cc5n4C[C@@H]4CCO4)CC3)cc2C(F)F)c(F)c1` [Compound 135, (S)-2-((4-(3-((4-cyano-2-fluorobenzyl)oxy)-4-(difluoromethyl)-1H-pyrazol-1-yl)piperidin-1-yl)methyl)-1-(oxetan-2-ylmethyl)-1H-benzo[d]imidazole-6-carboxylic acid]: the EC50 stood at 4.88 nM.

Consider `N#Cc1ccc(COc2cccc(C3CCN([C@@H]4CCCn5c4nc4ccc(C(=O)O)cc45)CC3)n2)c(F)c1` [Compound 87, (R)-4-(4-(6-((4-cyano-2-fluorobenzyl)oxy)pyridin-2-yl)piperidin-1-yl)-1,2,3,4-tetrahydrobenzo[4,5]imidazo[1,2-a]pyridine-8-carboxylic acid], for which the EC50 was over 500 nM.

Regarding `O=C(O)c1ccc2nc(CN3CC[C@@]4(c5cccc(OCc6ccc(Cl)cc6Cl)n5)C[C@H]4C3)n(C[C@@H]3CCO3)c2c1` (single isomer, unassigned) [Compound 126-P1], the midpoint of the response, the EC50, lay at 0.174 nM.

Take `O=C(O)c1ccc2nc(CN3CCN(c4cccc(OCc5ccc6ccccc6c5)n4)CC3)n(C[C@@H]3CCO3)c2c1` [Compound 70, (S)-2-((4-(6-(naphthalen-2-ylmethoxy)pyridin-2-yl)piperazin-1-yl)methyl)-1-(oxetan-2-ylmethyl)-1H-benzo[d]imidazole-6-carboxylic acid]: a half-maximal effect (EC50) was put at 1.19 nM.

The experiment is the same for the next values; noted with them: Table 3; cAMP Hunter CHO-K1 GLP1R Gs cells; percent activity normalized to Exendin-4.
Consider `N#Cc1ccc(COc2cccc(N3CCN(Cc4nc5ccc(C(=O)O)cc5n4C[C@@H]4CCO4)CC3)c2)c(F)c1` [Compound 150, (S)-2-((4-(3-((4-cyano-2-fluorobenzyl)oxy)phenyl)piperazin-1-yl)methyl)-1-(oxetan-2-ylmethyl)-1H-benzo[d]imidazole-6-carboxylic acid], for which a half-maximal response (EC50) required 0.9 nM.

As to `O=C(O)c1ccc2nc(CN3CCC(c4cccc(OC5CCCc6ccccc65)n4)CC3)n(C[C@@H]3CCO3)c2c1` (stereo partly drawn) [Compound 161, 1-(((S)-oxetan-2-yl)methyl)-2-((4-(6-((1,2,3,4-tetrahydronaphthalen-1-yl)oxy)pyridin-2-yl)piperidin-1-yl)methyl)-1H-benzo[d]imidazole-6-carboxylic acid], the EC50 came out at 304 nM.
